Entries after “also recorded” stand apart in the source; their conditions may differ. Ends that are not written are not given here.
Assays:
[1] = tested on: CLL B lymphocytes (CD19+/CD5+); conditions: for Effect of pre-incubation on PKHB1-mediated cell death in CLL cells: added 30 min before PKHB1 200 μM, BAPTA 5 mM, BAPTA-AM 20 μM, 2-APB 60 μM, dantrolene 40 μM, U73122 200 nM, hSIRPα-Fc 15 μg/ml; for Cytotoxicity / PCD in CLL cells (Annexin-V and PI co-positivity): 200-μM peptides, 2 h of treatment (Fig 1D, 1E)
Procedure: (§1) Mononuclear cells were purified from blood samples using a standard Ficoll-Hypaque gradient, and B cells were positively or negatively selected by magnetic microbeads coupled either to an anti-CD19 monoclonal antibody (positive selection) or to anti-CD16,-CD3, and-CD14 monoclonal antibodies (negative depletion) (Miltenyi Biotech). […] B lymphocytes, MEC-1, and M210B4 bone marrow stromal cells (ATCC) were cultured in complete medium (RPMI 1640 supplemented with 10% fetal calf serum, 2 mM L-glutamine, and 100 U/ml penicillin-streptomycin). In selected experiments, CLL cells were cultured in Ca^2+-free medium (RPMI 1640 without calcium, supplemented with dialyzed 10% fetal calf serum) prior to the induction of cell death.
(§2) Annexin-V-APC (0.1 μg/ml; BD Biosciences) was used for the assessment of phosphatidylserine exposure, propidium iodide (PI, 0.5 μg/ml) for cell viability analysis, and tetramethylrhodamine ethyl ester (TMRE, 20 nM) for mitochondrial transmembrane potential (ΔΨm) quantification. PCD was recorded in a FACSCanto II (BD Biosciences) in the total population (10,000 cells), and data were analyzed using FlowJo software. Chymotrypsin-like serine protease (serpase) or caspase cytofluorometric detection was performed with SerPase or Caspase activity kits from Imgenex (IMI-2301 and IMI-2315). Residual and leukemic B cells from CLL patients were discriminated from the mononuclear blood fraction by double labeling with anti-CD19 PerCP-Cyc5.5 (clone SJ25C1; BD Biosciences) and anti-CD5-PE-Cy7 mAb (clone L17F12; BD Biosciences). T cells from CLL patients were identified by a double anti-CD19 PerCP-Cyc5.5 and anti-CD3-PE-Cy7 (clone SK7; BD Biosciences) staining. Calreticulin cell surface exposure was recorded with anti-calreticulin-PE (clone FMC75; Assay Designs). […] A QuantiBRITE flow cytometry system (BD Biosciences) was used to assess the number of CD47 molecules expressed on normal and CLL B lymphocytes.
To induce PCD, 1 × 10^6 cells/ml were treated for 2 h with PKHB1 (200 μM), 4N1K (300 μM), 4NGG (300 μM), or an anti-CD47 monoclonal antibody ([…], clone B6H12 in soluble or immobilized conditions). To provide pro-survival microenvironment signals, CLL cells were pre-incubated with sCD40L (5 μg/ml) and IL-4 (20 ng/ml) or co-cultured with the M210B4 bone marrow stromal cell line (ATCC) before death was induced. To control for caspase-dependent apoptosis, cells were incubated for 12 h with etoposide (250 μM). For the inhibition assays, BAPTA-AM (20 μM); BAPTA (5 mM); Ru360 (750 nM); dantrolene (40 μM); 2-aminoethoxydiphenyl borate (2-APB, 60 μM); U73122 (200 nM); the broad spectrum caspase inhibitors Q-VD-OPh (QVD, 10 μM) and z-VAD-FMK (50 μM); the specific caspase inhibitors z-DEVD-FMK (50 μM, caspase-3/7), z-LEHD-FMK (50 μM, […]), and z-IETD-FMK (50 μM, […]); the serpase inhibitor TPCK (20 μM); or the fusion protein hSIRPα-Fc (15 μg/ml) was added 30 min before inducing PCD.

[2] = tested on: CD19+/CD5- B cells (residual B cells); test: Cell death by Annexin-V/PI in residual B cells of CLL patients; type: cell-based, human; conditions: 200 μM, 2 h; n = 20 (Fig 1G)
Procedure: as §2, with “lymphocytes. […]” for “lymphocytes.”

CD19-/CD3+ T cells = test: Cell death by Annexin-V/PI in T cells of CLL patients; type: cell-based, human; conditions: 200 μM, 2 h; n = 8 (Fig 1G)
Procedure: as §2, with “lymphocytes. […]” for “lymphocytes.”

[3] = Peptide degradation assay in human serum (HPLC); type: in vitro ADME; conditions: peptide 10 mg/ml in 1:4 human serum/RPMI 1640, 37°C, absorbance 220 nm
Procedure: 4N1K or PKHB1 (10 mg/ml), diluted in a 1:4 human serum/RPMI 1640 mixture, was incubated at 37°C for different lengths of time, then mixed with ethanol and 5 ml of 1 M NaOH and incubated at 4°C for at least 15 min to precipitate serum proteins. The supernatant was collected and injected in an HPLC system, and the soluble peptide was eluted by a linear gradient of 5% to 50% ACN (0.1% [v/v] TFA in acetonitrile) in aqueous 0.1% (v/v) TFA. The concentration of the peptide was calculated by the integration of the absorbance at 220 nm as a function of the retention time.

MEC-1 tumors = test: CLL-xenograft model: MEC-1 tumors in NSG mice; type: in vivo, mouse (NOD/scid gamma); conditions: weekly intraperitoneal injection; n = 8 per group (Fig 7C)
Procedure: In the CLL-xenograft model, MEC-1 cells (3 × 10^6) were injected subcutaneously into NOD/scid gamma (NSG) mice. When the tumor volume reached 100 mm^3, mice received intraperitoneal injections of PBS, PKHB1, or 4N1K (200 μg in 200 μl of PBS) once a week. Tumor size was measured with a caliper, and tumor volume was calculated using the formula (length × width^2)/2 and expressed in cubic millimeters. Alternatively, at 28 d after the engraftment, XenoLight RediJect 2-DG 750 Probe (Caliper) was injected into the retro-orbital sinus to visualize tumor glucose uptake, which reflects cell proliferation. Fluorescence was measured using an in vivo imaging system FX Pro (Kodak), and pictures were analyzed with Carestream Molecular Imaging software.
To determine hemoglobin levels, tumors were excised from euthanized mice, weighed, and homogenized in PBS. After centrifugation, formic acid was added to the supernatant, and the hemoglobin concentration was calculated based on the absorbance at 405 nm.
To assess PCD, calreticulin exposure, and PLCγ1-Y783, dissociated tumors were digested in medium containing Liberase-TL (Roche), DNase-I (Calbiochem), and Collagenase-IV (Life Technologies). Single-cell suspension, obtained by filtering through a […] cell strainer, was analyzed by flow cytometry.

[4] = Mice toxicity studies (hematology, kidney and liver histology); type: in vivo, mouse (NSG; conditions: weekly intraperitoneal injection, 10 mg/kg, 3 wk, NSG or C57BL/6 mice (S9 Fig)
Procedure: In mice toxicity studies, we used the same injection protocol as in xenografted NSG mice. The hematological parameters were monitored in blood drawn from the retro-orbital plexus from either vehicle- (PBS) or PKHB1-treated wild-type mice (C57BL/6) with an MS9–5 analyzer (Melet Schloesing). Kidneys and livers (24 h after the third injection of PBS or PKHB1) were fixed and embedded in paraffin. Paraffin sections ([…] thick) of kidney and liver were deparaffinized and rehydrated before staining with periodic acid—Schiff and hematoxylin-eosin, respectively.

CD47 [5] = biological target: CD47 (Homo sapiens, UniProt Q08722); test: Binding to CD47 (fluorescence polarization, isothermal titration calorimetry, microscale thermophoresis); conditions: isothermal titration calorimetry and microscale thermophoresis binding assays (methods per ref 82), read-out: Dissociation constant (Kd) to CD47
CD47 (Homo sapiens, UniProt Q08722), sequence (Q08722 19-323): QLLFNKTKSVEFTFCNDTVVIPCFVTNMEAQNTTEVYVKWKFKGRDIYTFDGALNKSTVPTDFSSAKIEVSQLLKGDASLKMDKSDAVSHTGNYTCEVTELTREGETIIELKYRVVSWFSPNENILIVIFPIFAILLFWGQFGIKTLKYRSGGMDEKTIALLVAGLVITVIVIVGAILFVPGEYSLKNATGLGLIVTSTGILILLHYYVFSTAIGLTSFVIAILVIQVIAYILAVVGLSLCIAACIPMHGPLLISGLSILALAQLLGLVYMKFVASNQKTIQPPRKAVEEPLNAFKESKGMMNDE
Excerpt: Supplementary file pmed.1001796.s002.tif: S2 Fig Primary structure of 4NGG, 4N1K, and PKHB1. In 4NGG, the two central valines of 4N1K were replaced by glycines (highlighted in red). In PKHB1, the N- and C-terminal lysines of 4N1K were replaced with their D counterparts (highlighted in green). […] (TIF) Click here for additional data file.

CLL cells = test: Caspase activity (FAM caspase detection kit) in CLL cells; type: cell-based, human; conditions: PKHB1 200 μM, 2 h; etoposide 250 μM, 12 h; representative CLL donor (Fig 2G)
MEC-1 cells = test: Cell death by Annexin-V/PI in MEC-1 cells; type: cell-based, human; conditions: PKHB1 200 μM, 2 h; etoposide 250 μM, 12 h (S7, S8 Figs)
Procedure: as §1
Annexin-V-APC (0.1 μg/ml; BD Biosciences) was used for the assessment of phosphatidylserine exposure, propidium iodide (PI, 0.5 μg/ml) for cell viability analysis, and tetramethylrhodamine ethyl ester (TMRE, 20 nM) for mitochondrial transmembrane potential (ΔΨm) quantification. PCD was recorded in a FACSCanto II (BD Biosciences) in the total population (10,000 cells), and data were analyzed using FlowJo software. […] Calreticulin cell surface exposure was recorded with anti-calreticulin-PE (clone FMC75; Assay Designs). […]

CD47 [6] = biological target: T1, CD47 (UniProt Q08722 19-323); test: fluorescence polarisation + ITC + MST; not told; one Kd is printed for each peptide for the three methods together; the legend refers to ref. 82
T1 construct: CD47; in the cell death assays it is the endogenous CD47 on human CLL B cells; the CD47 preparation is not described; also called cell surface receptor CD47
T1 sequence (Q08722 19-323): as above

For `CC(=O)OCOC(=O)CN(CC(=O)OCOC(C)=O)c1ccccc1OCCOc1ccccc1N(CC(=O)OCOC(C)=O)CC(=O)OCOC(C)=O` [BAPTA-AM], the “Effect of pre-incubation on PKHB1-mediated cell death in CLL cells” value (from here on “Effect of pre-incubation”) ([1]; 2 h) was “significantly decreased”.

With `COc1ccc2c(c1)CC[C@@H]1[C@@H]2CC[C@]2(C)[C@@H](NCCCCCCN3C(=O)C=CC3=O)CC[C@@H]12` [U73122] the “Effect of pre-incubation” value ([1]; 2 h) was “significantly decreased PCD”.

With `O=C1CN(/N=C/c2ccc(-c3ccc([N+](=O)[O-])cc3)o2)C(O)=N1` [dantrolene] the “Effect of pre-incubation” value ([1]; 2 h) was “significantly decreased”.

In the case of `CSCC[C@H](NC(=O)[C@@H](NC(=O)[C@@H](NC(=O)[C@H](Cc1ccc(O)cc1)NC(=O)[C@H](Cc1ccccc1)NC(=O)[C@H](CCCNC(=N)N)NC(=O)[C@H](N)CCCCN)C(C)C)C(C)C)C(=O)N[C@@H](Cc1c[nH]c2ccccc12)C(=O)N[C@@H](CCCCN)C(=O)N[C@H](CCCCN)C(=O)O` [PKHB1], the “Cytotoxicity / PCD in CLL cells (Annexin-V and PI co-positivity)” value [1] is reported as ~ 49%, the “Cytotoxicity in residual CD5- B lymphocytes of CLL patients” value [2] is reported as ~ 5% and the “Cytotoxicity in T cells of CLL patients” value (CD19-/CD3+ T cells) is reported as ~ 10%. For the same molecule, the “Degradation during long-term incubation in human serum” value ([3]; long-term incubation) was “not degraded”, the “Anemia (hemoglobin levels within the engrafted tumors)” value (MEC-1 tumors) was “did not provoke anemia” and the “Blood, liver, kidney toxicity” value [4] was “no toxic effect; also recorded: No blood, liver, or kidney toxicity”.

In the case of `O=C(O)CN(CC(=O)O)c1ccccc1OCCOc1ccccc1N(CC(=O)O)CC(=O)O` [BAPTA], the “Effect of pre-incubation” value ([1]; 2 h) is reported as “abolished”.

With `NCCOB(c1ccccc1)c1ccccc1` [2-APB, 2-aminoethoxydiphenyl borate] the “Effect of pre-incubation” value ([1]; 2 h) was “significantly decreased”.

In the case of `CSCC[C@H](NC(=O)[C@@H](NC(=O)[C@@H](NC(=O)[C@H](Cc1ccc(O)cc1)NC(=O)[C@H](Cc1ccccc1)NC(=O)[C@H](CCCNC(=N)N)NC(=O)[C@@H](N)CCCCN)C(C)C)C(C)C)C(=O)N[C@@H](Cc1c[nH]c2ccccc12)C(=O)N[C@@H](CCCCN)C(=O)N[C@@H](CCCCN)C(=O)O` [4N1K], the “Cytotoxicity / PCD in CLL cells (Annexin-V and PI co-positivity)” value [1] is reported as ~ 25% and the metabolised at 1 h, 10 mg/ml ([3]; human serum diluted 1:4 in RPMI 1640, 1-h incubation, serum proteins precipitated with ethanol/NaOH, read-out: Peptide degraded in human serum) is reported as > 90%.

In the case of KRFYGGMWKK [4NGG], the Kd (CD47 [5]) is reported as 1000 µM.

For `COc1cc([C@@H]2c3cc4c(cc3[C@@H](O[C@@H]3O[C@@H]5CO[C@@H](C)O[C@H]5[C@H](O)[C@H]3O)[C@H]3COC(=O)[C@H]23)OCO4)cc(OC)c1O` [etoposide], the “Cell death response with microenvironment survival signals (sCD40L + IL-4 or M210B4 bone marrow stromal cells)” value ([1]; PKHB1 200 μM, 2 h, etoposide 250 μM, 12 h, n = 8 patients (Fig 2B)) was “significantly diminished”, the “Activated caspases, positive cells” value (CLL cells) was ~ 47% and the “Cell death response of MEC-1 cells (dysfunctional TP53)” value (MEC-1 cells) was “resistant to etoposide treatment”.

B1: PKHB1 (peptide)
peptide: KRFYVVMWKK
modifications: D-lysine at the N-terminus and D-lysine at the C-terminus (printed as lower-case k)
notes: N-terminal lysine, not part of thrombospondin-1 (introduced in 4N1K to improve solubility); here the D analogue; stretch of the C-terminal domain of thrombospondin-1 (TSP1); C-terminal lysine, not part of thrombospondin-1 (introduced in 4N1K to improve solubility); 4N1K with its N- and C-terminal lysines replaced by their D counterparts; also called k-R-F-Y-V-V-M-W-K-k; source: synthetic peptide …
B1 gave a Kd (CD47 [6]) of 0.4 µM.

B2: 4N1K (peptide)
peptide: KRFYVVMWKK
notes: N-terminal lysine introduced to improve solubility, not part of thrombospondin-1; stretch of the C-terminal domain of thrombospondin-1 (TSP1); C-terminal lysine introduced to improve solubility, not part of thrombospondin-1; also called K-R-F-Y-V-V-M-W-K-K; TSP1-derived decapeptide; source: synthetic peptide (solid-phase synthesis, purified by reverse phase HPLC, purity greater than 95%)
With B2 the Kd (CD47 [6]) was 1.5 µM.

From publication PMC4348493, “CD47 Agonist Peptides Induce Programmed Cell Death in Refractory Chronic Lymphocytic Leukemia B Cells via PLCγ1 Activation: Evidence from Mice and Humans” (PLoS Medicine, 2015)
